Reference: the supplement of paper PMC10307832

Key:
Test in all cases: relative viability (nuclei count vs DMSO), 5 days (fraction); higher = more cells survive
NCI-H1648 = test system: NCI-H1648
Method in brief: (§1)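 Values are medians from duplicate plates. Each reflects relative viability, defined as the nuclei count of treated wells over that of vehicle wells. Lung cancer cell lines in 1536-well plates were pin-tool dosed one day after seeding with one drug alone or with a fixed anchor-drug dose plus five library-drug doses (not always all listed) in √10 steps, then fixed, stained and imaged at 4× after 5 days.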

NCI-H2342 = test system: NCI-H2342
Method in brief: as §1

NCI-H661 = test system: NCI-H661
Method in brief: as §1

HCC-78 = test system: HCC-78
Method in brief: as §1

NCI-H460 = test system: NCI-H460
Method in brief: as §1

NCI-H358 = test system: NCI-H358
Method in brief: as §1

A549 = test system: A549
Method in brief: as §1

NCI-H2009 = test system: NCI-H2009
Method in brief: as §1

NCI-H522 = test system: NCI-H522
Method in brief: as §1

IA-LM = test system: IA-LM
Method in brief: as §1

## COc1cc2nccc(Oc3ccc(NC(=O)Nc4cc(C)on4)c(Cl)c3)c2cc1OC [Tivozanib] + Nc1ncn([C@H]2C[C@H](O)[C@@H](CO)O2)c(=O)n1 [Decitabine] (partner 2 µM)
NCI-H1648; first compound 0.005 µM
  relative viability: 0.467
NCI-H1648; first compound 0.01581 µM
  relative viability: 0.434
NCI-H1648; first compound 0.05 µM
  relative viability: 0.479
NCI-H1648; first compound 0.1581 µM
  relative viability: 0.451
NCI-H1648; first compound 0.5 µM
  relative viability: 0.496
NCI-H2342; first compound 0.005 µM
  relative viability: 0.678
NCI-H2342; first compound 0.01581 µM
  relative viability: 0.646
NCI-H2342; first compound 0.05 µM
  relative viability: 0.789
NCI-H2342; first compound 0.5 µM
  relative viability: 0.712
NCI-H661; first compound 0.005 µM
  relative viability: 0.527
NCI-H661; first compound 0.01581 µM
  relative viability: 0.557
NCI-H661; first compound 0.05 µM
  relative viability: 0.592
NCI-H661; first compound 0.1581 µM
  relative viability: 0.514
NCI-H661; first compound 0.5 µM
  relative viability: 0.552
HCC-78; first compound 0.005 µM
  relative viability: 0.685
HCC-78; first compound 0.01581 µM
  relative viability: 0.807
HCC-78; first compound 0.05 µM
  relative viability: 0.733
HCC-78; first compound 0.1581 µM
  relative viability: 0.651
HCC-78; first compound 0.5 µM
  relative viability: 0.667
NCI-H460; first compound 0.005 µM
  relative viability: 0.449
NCI-H460; first compound 0.01581 µM
  relative viability: 0.468
NCI-H460; first compound 0.05 µM
  relative viability: 0.48
NCI-H460; first compound 0.1581 µM
  relative viability: 0.62
NCI-H460; first compound 0.5 µM
  relative viability: 0.482
NCI-H358; first compound 0.005 µM
  relative viability: 0.187
NCI-H358; first compound 0.01581 µM
  relative viability: 0.217
NCI-H358; first compound 0.05 µM
  relative viability: 0.215
NCI-H358; first compound 0.1581 µM
  relative viability: 0.222
NCI-H358; first compound 0.5 µM
  relative viability: 0.206
A549; first compound 0.005 µM
  relative viability: 0.207
A549; first compound 0.01581 µM
  relative viability: 0.225
A549; first compound 0.05 µM
  relative viability: 0.223
A549; first compound 0.1581 µM
  relative viability: 0.239
A549; first compound 0.5 µM
  relative viability: 0.225
NCI-H2009; first compound 0.005 µM
  relative viability: 0.388
NCI-H2009; first compound 0.01581 µM
  relative viability: 0.329
NCI-H2009; first compound 0.05 µM
  relative viability: 0.382
NCI-H2009; first compound 0.1581 µM
  relative viability: 0.369
NCI-H2009; first compound 0.5 µM
  relative viability: 0.368
NCI-H522; first compound 0.005 µM
  relative viability: 0.702
NCI-H522; first compound 0.01581 µM
  relative viability: 0.68
NCI-H522; first compound 0.05 µM
  relative viability: 0.696
NCI-H522; first compound 0.1581 µM
  relative viability: 0.665
NCI-H522; first compound 0.5 µM
  relative viability: 0.577

## COc1cc2nccc(Oc3ccc(NC(=O)Nc4cc(C)on4)c(Cl)c3)c2cc1OC [Tivozanib] + O=C(CCCCCCC(=O)Nc1ccccc1)NO [Vorinostat] (partner 1 µM)
NCI-H1648; first compound 0.005 µM
  relative viability: 0.453
NCI-H1648; first compound 0.01581 µM
  relative viability: 0.706
NCI-H1648; first compound 0.05 µM
  relative viability: 0.804
NCI-H1648; first compound 0.1581 µM
  relative viability: 0.796
NCI-H1648; first compound 0.5 µM
  relative viability: 0.423
NCI-H2342; first compound 0.005 µM
  relative viability: 0.783
NCI-H2342; first compound 0.01581 µM
  relative viability: 0.668
NCI-H2342; first compound 0.05 µM
  relative viability: 0.719
NCI-H2342; first compound 0.5 µM
  relative viability: 0.811
NCI-H661; first compound 0.005 µM
  relative viability: 0.782
NCI-H661; first compound 0.01581 µM
  relative viability: 0.776
NCI-H661; first compound 0.05 µM
  relative viability: 0.789
NCI-H661; first compound 0.1581 µM
  relative viability: 0.8
NCI-H661; first compound 0.5 µM
  relative viability: 0.802
HCC-78; first compound 0.005 µM
  relative viability: 0.408
HCC-78; first compound 0.01581 µM
  relative viability: 0.47
HCC-78; first compound 0.05 µM
  relative viability: 0.412
HCC-78; first compound 0.1581 µM
  relative viability: 0.467
HCC-78; first compound 0.5 µM
  relative viability: 0.363
NCI-H460; first compound 0.005 µM
  relative viability: 0.651
NCI-H460; first compound 0.01581 µM
  relative viability: 0.741
NCI-H460; first compound 0.05 µM
  relative viability: 0.748
NCI-H460; first compound 0.1581 µM
  relative viability: 0.76
NCI-H460; first compound 0.5 µM
  relative viability: 0.569
NCI-H358; first compound 0.005 µM
  relative viability: 0.652
NCI-H358; first compound 0.01581 µM
  relative viability: 0.761
NCI-H358; first compound 0.05 µM
  relative viability: 0.779
NCI-H358; first compound 0.1581 µM
  relative viability: 0.62
NCI-H358; first compound 0.5 µM
  relative viability: 0.37
NCI-H2009; first compound 0.005 µM
  relative viability: 0.623
NCI-H2009; first compound 0.01581 µM
  relative viability: 0.785
NCI-H2009; first compound 0.05 µM
  relative viability: 0.741
NCI-H2009; first compound 0.1581 µM
  relative viability: 0.738
NCI-H2009; first compound 0.5 µM
  relative viability: 0.621
NCI-H522; first compound 0.005 µM
  relative viability: 1
NCI-H522; first compound 0.01581 µM
  relative viability: 1
NCI-H522; first compound 0.05 µM
  relative viability: 0.822
NCI-H522; first compound 0.1581 µM
  relative viability: 0.721
NCI-H522; first compound 0.5 µM
  relative viability: 0.809
IA-LM; first compound 0.005 µM
  relative viability: 0.93
IA-LM; first compound 0.01581 µM
  relative viability: 0.981
IA-LM; first compound 0.05 µM
  relative viability: 0.872
IA-LM; first compound 0.5 µM
  relative viability: 0.836

## CC(=O)O[C@@]12CO[C@@H]1C[C@H](O)[C@@]1(C)C(=O)[C@H](O)C3=C(C)[C@@H](OC(=O)[C@H](O)[C@@H](NC(=O)OC(C)(C)C)c4ccccc4)C[C@@](O)([C@@H](OC(=O)c4ccccc4)[C@H]21)C3(C)C [Docetaxel] + O=C(CCCCCCC(=O)Nc1ccccc1)NO [Vorinostat] (partner 1 µM)
NCI-H1648; first compound 0.0002 µM
  relative viability: 0.487
NCI-H1648; first compound 0.000632 µM
  relative viability: 0.378
NCI-H1648; first compound 0.002 µM
  relative viability: 0.255
NCI-H1648; first compound 0.006325 µM
  relative viability: 0.301
NCI-H1648; first compound 0.02 µM
  relative viability: 0.155
NCI-H2342; first compound 0.0002 µM
  relative viability: 0.625
NCI-H2342; first compound 0.000632 µM
  relative viability: 0.662
NCI-H2342; first compound 0.002 µM
  relative viability: 0.569
NCI-H2342; first compound 0.006325 µM
  relative viability: 0.445
NCI-H2342; first compound 0.02 µM
  relative viability: 0.475
NCI-H661; first compound 0.0002 µM
  relative viability: 0.777
NCI-H661; first compound 0.000632 µM
  relative viability: 0.856
NCI-H661; first compound 0.002 µM
  relative viability: 0.728
NCI-H661; first compound 0.006325 µM
  relative viability: 0.493
NCI-H661; first compound 0.02 µM
  relative viability: 0.373
HCC-78; first compound 0.0002 µM
  relative viability: 0.473
HCC-78; first compound 0.000632 µM
  relative viability: 0.374
HCC-78; first compound 0.002 µM
  relative viability: 0.261
HCC-78; first compound 0.006325 µM
  relative viability: 0.31
HCC-78; first compound 0.02 µM
  relative viability: 0.313
NCI-H460; first compound 0.0002 µM
  relative viability: 0.637
NCI-H460; first compound 0.000632 µM
  relative viability: 0.349
NCI-H460; first compound 0.002 µM
  relative viability: 0.0613
NCI-H460; first compound 0.006325 µM
  relative viability: 0.0388
NCI-H460; first compound 0.02 µM
  relative viability: 0.0166
NCI-H358; first compound 0.0002 µM
  relative viability: 0.625
NCI-H358; first compound 0.000632 µM
  relative viability: 0.399
NCI-H358; first compound 0.002 µM
  relative viability: 0.109
NCI-H358; first compound 0.006325 µM
  relative viability: 0.112
NCI-H358; first compound 0.02 µM
  relative viability: 0.0606
NCI-H2009; first compound 0.0002 µM
  relative viability: 0.714
NCI-H2009; first compound 0.000632 µM
  relative viability: 0.715
NCI-H2009; first compound 0.002 µM
  relative viability: 0.707
NCI-H2009; first compound 0.006325 µM
  relative viability: 0.301
NCI-H2009; first compound 0.02 µM
  relative viability: 0.176
NCI-H522; first compound 0.0002 µM
  relative viability: 0.852
NCI-H522; first compound 0.000632 µM
  relative viability: 0.899
NCI-H522; first compound 0.002 µM
  relative viability: 0.713
NCI-H522; first compound 0.006325 µM
  relative viability: 0.516
NCI-H522; first compound 0.02 µM
  relative viability: 0.344
IA-LM; first compound 0.0002 µM
  relative viability: 0.723
IA-LM; first compound 0.000632 µM
  relative viability: 0.328
IA-LM; first compound 0.002 µM
  relative viability: 0.145
IA-LM; first compound 0.006325 µM
  relative viability: 0.0958
IA-LM; first compound 0.02 µM
  relative viability: 0.0566
